The assay deals with T1, DcCHI1 (Dracaena cambodiana, UniProt A0A8A5KFS9).
T1 construct: gene CHI1
T1 sequence (A0A8A5KFS9 1-219): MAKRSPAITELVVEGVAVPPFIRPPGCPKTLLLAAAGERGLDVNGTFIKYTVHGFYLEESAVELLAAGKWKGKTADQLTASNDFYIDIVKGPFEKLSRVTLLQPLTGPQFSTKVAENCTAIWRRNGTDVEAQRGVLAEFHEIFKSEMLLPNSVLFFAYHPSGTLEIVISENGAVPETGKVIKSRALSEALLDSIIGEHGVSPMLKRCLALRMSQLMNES
The assay is described as follows: HPLC of reaction product. It counts as biochemical. The settings on record: 100 mM Tris-HCl pH 7.6, 30 °C, 2 min; 5 µl of 5 mM substrate in 200 µl.

Structures are written as SMILES.

Regarding `O=C1C[C@@H](c2ccc(O)cc2)Oc2cc(O)cc(O)c21` [naringenin], the “HPLC of reaction product” value is on record as “recombinant DcCHI1 could catalyze the formation of naringenin with naringenin chalcone as the substrate”.

As for `O=C(/C=C/c1ccc(O)cc1)c1c(O)cc(O)cc1O` [naringenin chalcone], the “HPLC of reaction product” value is reported as “recombinant DcCHI1 could catalyze the formation of naringenin with naringenin chalcone as the substrate”.

Source of the values: article PMC7947852, “Identification and Characterization of Chalcone Isomerase Genes Involved in Flavonoid Production in Dracaena cambodiana” (Frontiers in Plant Science, 2021).
